Test results from US20240376074A1, “NAMPT INHIBITORS AND USES THEREOF” (Remedy Plan, Inc., priority 2021, published 2024).

Molecular target: T1, NAMPT (Homo sapiens, UniProt P43490)
T1 construct: purchased Abcam ab221819
Assay: NAMPT Activity Assay (Abcam #ab221819)
Type: biochemical
Conditions: purified NAMPT, percent inhibition from OD450 nm; compound concentration not given
Method: The NAMPT Activity Assay (Abcam #ab221819) was performed following manufacturers two-step reaction protocol. Briefly, compounds were added to a clear 96-well plate using the HP D300e Digital Dispenser. Purified NAMPT was added to all wells except the No NAMPT controls. Reaction Mix #1 was added to each well and the plate was incubated at 30*C for 1 hr followed by the addition of Reaction Mix #2. Absorbance was measured at OD450 nm using a multimode plate reader. Readings were recorded for 5 minutes and percent inhibition was calculated using: (1-(OD450 nm compound/OD450nm no drug))*100.

T1 sequence (P43490 whole entry): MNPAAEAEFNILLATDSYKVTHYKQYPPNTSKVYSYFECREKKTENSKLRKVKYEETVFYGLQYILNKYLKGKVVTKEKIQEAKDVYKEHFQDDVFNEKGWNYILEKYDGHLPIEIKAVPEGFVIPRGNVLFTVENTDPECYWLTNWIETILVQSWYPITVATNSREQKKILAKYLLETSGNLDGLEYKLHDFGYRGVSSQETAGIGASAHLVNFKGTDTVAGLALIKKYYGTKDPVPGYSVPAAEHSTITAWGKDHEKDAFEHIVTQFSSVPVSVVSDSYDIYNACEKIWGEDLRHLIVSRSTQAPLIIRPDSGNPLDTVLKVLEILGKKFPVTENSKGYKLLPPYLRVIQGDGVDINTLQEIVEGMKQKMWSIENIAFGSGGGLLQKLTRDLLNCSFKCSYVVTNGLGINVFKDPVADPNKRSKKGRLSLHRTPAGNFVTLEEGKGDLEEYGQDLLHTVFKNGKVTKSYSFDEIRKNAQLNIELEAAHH

| SMILES | NAMPT Inhibition Code* |
| --- | --- |
| COC(=O)c1cc(-c2ccc(C(=O)NCCc3cccnc3)cn2)ccc1N(CC1CC1)C(C)=O [I-T2296, Methyl 2-[acetyl(cyclopropylmethyl)amino]-5-[5-[2-(3-pyridyl)ethylcarbamoyl]-2-pyridyl]benzoate] | C (C = ≥66% inhibition) |
| CC(=O)N(CC(F)F)c1ccc(-c2ccc(NC(=O)Cc3cccnc3)cn2)cc1Cl [I-T2290, N-[6-[4-[acetyl(2,2-difluoroethyl)amino]-3-chloro-phenyl]-3-pyridyl]-2-(3-pyridyl) acetamide] | C (C = ≥66% inhibition) |
| CC(=O)N(CC1CC1)c1ccc(-c2ccc(C(=O)NCCc3ccc(C)nc3)cn2)cc1Cl [I-T2309, 6-[4-[Acetyl(cyclopropylmethyl)amino]-3-chloro-phenyl]-N-[2-(6-methyl-3-pyridyl)ethyl]pyridine-3-carboxamide] | B (B = >33 to <66% inhibition) |
| COC(=O)c1cc(-c2ccc(C(=O)NCCCc3cc[nH]n3)cn2)ccc1N(CC1CC1)C(C)=O [I-T2299, Methyl 2-[acetyl(cyclopropylmethyl)amino]-5-[5-[3-(1H-pyrazol-3-yl)propylcarbamoyl]-2-pyridyl]benzoate] | C (C = ≥66% inhibition) |
| CC(=O)N(CC1CC1)c1ccc(-c2ccc(C(=O)NC3Cc4ccccc4C3)cn2)cc1Cl [I-T2152, 6-[4-[Acetyl(cyclopropylmethyl)amino]-3-chloro-phenyl]-N-indan-2-yl-pyridine-3-carboxamide] | B (B = >33 to <66% inhibition) |
| CC(=O)N(CC1CC1)c1ccc(-c2ccc(C(=O)NCCc3cccnc3)cn2)cc1C(F)(F)F [I-T2303, 6-[4-[Acetyl(cyclopropylmethyl)amino]-3-(trifluoromethyl)phenyl]-N-[2-(3-pyridyl)ethyl]pyridine-3-carboxamide] | C (C = ≥66% inhibition) |
| CC(=O)N(CC1CC1)c1ccc(-c2ccc(C(=O)NCCc3cncs3)cn2)cc1Cl [I-T2360, 6-[4-[acetyl(cyclopropylmethyl)amino]-3-chloro-phenyl]-N-(2-thiazol-5-ylethyl)pyridine-3-carboxamide] | C (C = ≥66% inhibition) |
| CC(=O)N(CC1CC1)c1ccc(-c2ccc(C(=O)NCCCc3cc[nH]n3)cn2)cc1C#N [I-T2313, 6-[4-[acetyl(cyclopropylmethyl)amino]-3-cyano-phenyl]-N-[3-(1H-pyrazol-5-yl)propyl]pyridine-3-carboxamide] | C (C = ≥66% inhibition) |
| CC(=O)N(CC1CC1)c1ccc(-c2ccc(C(=O)NCc3cncnc3)cn2)cc1Cl [I-T2147, 6-[4-[Acetyl(cyclopropylmethyl)amino]-3-chloro-phenyl]-N-(pyrimidin-5-ylmethyl)pyridine-3-carboxamide] | A (*A = <33% inhibition) |
| CC(=O)N(CC1CC1)c1ccc(-c2ccc(C(=O)NCCc3ccsc3)cn2)cc1Cl [I-T2353, 6-[4-[acetyl(cyclopropylmethyl)amino]-3-chloro-phenyl]-N-[2-(3-thienyl)ethyl]pyridine-3-carboxamide] | C (C = ≥66% inhibition) |
| CC(=O)N(CC1CC1)c1ccc(-c2ccc(NC(=O)COc3cccnc3)cn2)cc1Cl [I-T2119, N-[6-[4-[acetyl(cyclopropylmethyl)amino]-3-chloro-phenyl]-3-pyridyl]-2-(3-pyridyloxy)-acetamide] | C (C = ≥66% inhibition) |
| CC(=O)N(CC1CC1)c1ccc(-c2ccc(C(=O)NCCc3cccnc3)cn2)cc1F [I-T2301, 6-[4-[acetyl(cyclopropylmethyl)amino]-3-fluoro-phenyl]-N-[2-(3-pyridyl)ethyl]pyridine-3-carboxamide] | C (C = ≥66% inhibition) |
| CC(=O)N(CC(F)F)c1ccc(-c2ccc(C(=O)NCCCn3ccnc3)cn2)cc1Cl [I-T2288, 6-[4-[Acetyl(2,2-difluoroethyl)amino]-3-chloro-phenyl]-N-(3-imidazol-1-ylpropyl)pyridine-3-carboxamide] | C (C = ≥66% inhibition) |
